Laboratory results taken from patent publication US8221773B2, “Hydrogels and uses thereof” (University of Delaware, priority 2004, dated 2012).
Entries after “also recorded” stand apart in the source; their conditions may differ. Where no end group is shown, it is not given here.

What was measured:
NIH 3T3 fibroblasts = experiment: 3H thymidine cell seeding / proliferation assay; format: cell-based, mouse; details: 2 wt. % hydrogel, 48 hours
Text: A quantitative assay that could be used to measure the rate of cell proliferation was developed. This allows gels having different material properties and constituent peptide sequences to be compared in terms of how well they support proliferation. Standard colorimetric assays such as the MTT and XTT have proven unsuitable for use with hydrogels of the invention. These assays rely on the ability of cells to metabolize tetrazolium derivatives to their corresponding colored formazan analogs. The analogs permeate into the hairpin hydrogel and become immobilized making subsequent quantification by UV spectroscopy unreliable. This problem has been addressed by utilizing ^3H thymidine-based assays in which thymidine is incorporated into proliferating cells undergoing DNA replication. […] The assay is two-fold. […] Second, a proliferation rate may be determined for a given material by seeding the cells (at optimal density) onto the material and determining the number of cells undergoing DNA replication at discrete time points up to 48 hours when confluency is reached. […] Unincorporated thymidine may be washed out (washes may be assayed until ^3H thymidine is no longer detected) and the cells sacrificed for scintillation counting. […] Therefore, for each new material, similar cell seeding experiments may be performed before rates of proliferation are determined. […]

[1] = CD spectroscopy of peptide folding (random coil vs β-sheet); format: physicochemical
Experimental: Time-dependent circular dichroism (CD) studies support a hydrogelation mechanism consistent with intramolecular hairpin formation followed by self-assembly. […] At temperatures >25° C. the folding and self-assembly of MAX1 occurs on the order of seconds. […] This behavior is consistent across all spectro- and microscopic methods used to interrogate MAX1. For example, at micromolar concentrations used for the CD studies shown in FIGS. 4A and 4B, self-assembly takes hours at 20° C. At millimolar concentrations, such as those used in the rheological studies described below, self-assembly leading to hydrogel takes minutes at 20° C.
The reversibility of the folding and self-assembly process was investigated by measuring θ216 as a function of pH and time as shown in FIG. 4C. CD of a stirred solution of MAX1 at pH 5.5 indicates random coil conformation. Adjusting the pH to 9.0 by the addition of NaOH results in β-sheet formation as expected. However, subsequent adjustment of the pH to 6.0 results in complete loss of sheet signal and full recovery of random coil signal. […] Again, this reversible behavior is not observed in hydrogels formed from amyloid/prion-like fibrils.
In some embodiments of the invention, various functionalities (e.g., cell adhesion epitopes, receptor agonists, receptor antagonists, ligands, small molecules, etc) may be incorporated into the hairpin hydrogel scaffold. One way to accomplish this would be to functionalize one or more amino acid side chains of the peptide. […] In some embodiments, the moieties to be incorporated at a particular side chain may be much larger (e.g. RGD-based motifs) and may contain charged residues. MAX5 (VKVKVKVKV^DPPTKVKEKVKV-NH2) was prepared to investigate the possibility of incorporating a charged residue on the hydrophobic face of MAX1. The sequence contains a glutamic acid residue at position 16 which is negatively charged at basic pH where MAX1 normally folds and assembles. […] However, alterations to the hydrophilic face of MAX1 are well tolerated. Sequences in which one or two lysine residues are replaced with other residues such as cysteine, serine, and glutamic acid are capable of folding and self-assembly into rigid hydrogels (data not shown).
The peptides described above contain identical turn sequences, namely (-V^DPPT-). This sequence has a strong propensity to form a type II′ turn and therefore helps to drive intramolecular folding. Since intramolecular folding must occur prior to self-assembly, alterations to this turn sequence that inhibit turn structure formation can be used to modulate intramolecular folding and self-assembly leading to hydrogelation. MAX9 was prepared to probe the importance of the turn region (VKVKVKVKV^LPPTKVKVKVKV-NH2). […]

Sequence: VKVKVKVK V^DPPT KVKVKVKV-NH2 (not fully specified (C-terminus)) [MAX1]
- optimal cell seeding density for 2 day proliferation assays (NIH 3T3 fibroblasts): 40,000 fibroblasts
- cell proliferation on hydrogel versus tissue culture polystyrene control (NIH 3T3 fibroblasts; 3H thymidine counts): more cells have grown on the hydrogel than on the control surface; also recorded: higher than the control
- time to plateau of β-sheet formation (ellipticity at 218 nm) ([1]; 2.0 wt %, pH 7.4, 150 mM KF, 37° C): 15 min
- reversibility of folding and self-assembly with pH ([1]; stirred 300 μM solution, pH 5.5 to 9.0 to 6.0, 20° C): reversible
